Reference: paper PMC6476926, “Dichloro-Phenyl-Benzotriazoles: A New Selective Class of Human Respiratory Syncytial Virus Entry Inhibitors” (Frontiers in Chemistry, 2019)

Columns and labels:
Reo-1 = assay: microbe, parasite or virus in culture; type: cell-based, Reovirus type-1 (Reo-1); details: Reovirus sp., BHK, read-out: EC50 Reo-1
in vitro = details: cattle (Bos taurus)
RSV = assay: microbe, parasite or virus in culture; type: cell-based, Human Respiratory Syncytial Virus (RSV) strain A2; details: human respiratory syncytial virus, Vero 76, read-out: EC50 RSV
Sb-1, VSV, VV, HSV-1 = assay: organism not typed; type: cell-based; details: Vero 76, read-out: EC50 Sb-1, VSV, VV, HSV-1
HIV-1IIIB = assay: microbe, parasite or virus in culture; type: cell-based, Human Immunodeficiency Virus type-1 (HIV-1); details: Human immunodeficiency virus 1, MT4, read-out: EC50 HIV-1IIIB
YFV = assay: microbe, parasite or virus in culture; type: cell-based; details: Yellow fever virus, BHK, read-out: EC50 YFV
RSV strain B1 cp-52 = assay: microbe, parasite or virus in culture; type: cell-based; details: human respiratory syncytial virus, Vero 76, read-out: 50% inhibitory concentration RSV cp-52
[1] = Cytotoxicity, MTT method, BHK cells; details: Syrian hamster (Mesocricetus auratus)
[2] = Cytotoxicity, MTT method, Vero-76 cells; details: African green monkey (Cercopithecus aethiops)
[3] = Cytotoxicity, MTT method, MT-4 cells; details: human
BVDV = assay: microbe, parasite or virus in culture; type: cell-based; details: Bovine viral diarrhea virus isolates and strains, MDBK, read-out: EC50 BVDV
CV-B5 = assay: microbe, parasite or virus in culture; type: cell-based, Human Enterovirus B [coxsackie type B5 (CV-B5)]; details: Enterovirus B, CVB5, Vero 76, read-out: EC50 CV-B5

CCCNC(=O)Nc1ccc(-n2nc3cc(Cl)c(Cl)cc3n2)cc1 [10b, 1-[4-(5,6-dichloro-2H-benzo[d][1,2,3]triazol-2-yl)phenyl]-3-propylurea]
EC50 (Reo-1): > 40 µM | CC50 (in vitro): 78 µM | EC50 (RSV): 3 µM | EC50 (Sb-1, VSV, VV, HSV-1): > 30 µM | EC50 (HIV-1IIIB): > 100 µM | EC50 (YFV): > 40 µM | IC50 (RSV strain B1 cp-52): 7 ± 1 µM | CC50 [1]: 40 µM | melting point: > 300 °C | CC50 at 5 days [2]: 30 µM | CC50 [3]: > 100 µM | EC50 (BVDV): > 78 µM | EC50 (CV-B5): > 30 µM
